Measured values taken from ChEMBL document CHEMBL1201862, “PubChem BioAssay data set” (2004).
Calls of active or inactive are those of the source.

Key:
[1] = biological target: T1, Rac GTPase-activating protein 1 (Homo sapiens, UniProt Q9H0H5); test: blockers of MgcRacGAP-driven Rac1 GTP hydrolysis – biochemical, ADP Hunter fluorescence, primary and confirmatory, confirmation (AID 624330); format: functional
T1 sequence (Q9H0H5 whole entry): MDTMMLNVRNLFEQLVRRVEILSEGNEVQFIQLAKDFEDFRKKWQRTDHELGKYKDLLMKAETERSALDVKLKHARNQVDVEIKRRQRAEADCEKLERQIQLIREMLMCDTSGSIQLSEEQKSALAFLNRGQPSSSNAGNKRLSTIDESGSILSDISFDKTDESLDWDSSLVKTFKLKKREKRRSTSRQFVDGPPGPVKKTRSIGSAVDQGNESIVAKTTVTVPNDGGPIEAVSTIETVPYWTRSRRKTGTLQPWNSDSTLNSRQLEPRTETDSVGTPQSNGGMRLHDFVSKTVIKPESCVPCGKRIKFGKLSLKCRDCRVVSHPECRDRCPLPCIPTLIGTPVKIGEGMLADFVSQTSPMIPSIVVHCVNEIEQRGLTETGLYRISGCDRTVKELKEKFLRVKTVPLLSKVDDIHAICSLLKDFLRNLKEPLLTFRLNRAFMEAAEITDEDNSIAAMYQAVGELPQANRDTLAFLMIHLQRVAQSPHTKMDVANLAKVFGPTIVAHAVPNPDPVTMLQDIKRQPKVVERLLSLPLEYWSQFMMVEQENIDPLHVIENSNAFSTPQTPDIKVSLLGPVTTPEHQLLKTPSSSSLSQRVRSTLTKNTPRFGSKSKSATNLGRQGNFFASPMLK

[2] = system: Streptococcus sp. 'group A'; test: Streptococcus pyogenes SK(-)GAS viability under kanamycin – luminescence, BacTiterGlo, confirmation, counter-screen for streptokinase expression inhibitor project, dose response (AID 1900); format: functional, organism-based
Streptokinase A = biological target: T2, Streptokinase A (Streptococcus pyogenes serotype M1, UniProt P10520); test: viability-normalized secreted streptokinase activity reduction – plasminogen activation absorbance, OD405, dose response (AID 1914); format: functional, Streptococcus pyogenes M1 GAS;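 note: secreted streptokinase activity via plasminogen activation per viability signal from cell pellet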
T2 sequence (P10520 whole entry): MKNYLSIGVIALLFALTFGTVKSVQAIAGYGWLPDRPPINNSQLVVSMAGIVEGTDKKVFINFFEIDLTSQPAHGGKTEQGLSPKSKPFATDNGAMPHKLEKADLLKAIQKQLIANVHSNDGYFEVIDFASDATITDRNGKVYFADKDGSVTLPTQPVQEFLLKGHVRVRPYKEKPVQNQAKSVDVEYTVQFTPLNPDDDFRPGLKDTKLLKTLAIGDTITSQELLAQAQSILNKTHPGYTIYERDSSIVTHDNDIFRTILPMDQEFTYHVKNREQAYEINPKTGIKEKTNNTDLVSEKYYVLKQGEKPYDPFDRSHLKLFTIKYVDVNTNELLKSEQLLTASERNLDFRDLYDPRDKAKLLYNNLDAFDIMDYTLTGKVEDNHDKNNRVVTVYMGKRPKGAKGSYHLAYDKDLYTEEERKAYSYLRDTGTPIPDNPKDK

Streptococcus = test: GAS UMAA2166 growth inhibition – luminescence, BacTiterGlo, counter-screen for streptokinase expression inhibitor project, dose response (AID 1915); format: functional, organism-based;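 note: potency for reduction of bacterial viability or growth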
[3] = luciferase reporter signal suppression in cells – H4 neuroglioma cells, luminescence, dose response (AID 1990); format: functional, cell-based
[4] = Luminescence Cell-Based Dose Response HTS to Identify Inhibitors of 5'UTR Stem-Loop Driven Prion Protein mRNA Translation in H4 Neuroglioblastoma Cells. [Related pubchem assays: 1827 (Project Summary), 1813 (Primary HTS)]; format: functional
[5] = alpha-synuclein stem-loop luciferase translation blockers – H4 neuroglioma cells, luminescence, confirmation (AID 1988); format: functional, cell-based
INS1 = test: INS-1E survival protection against cytokine death – cell-based, luminescence, retest, dose response (AID 449756); format: functional; details: Rattus norvegicus;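 note: cell death triggered by IL-1 beta plus TNF-alpha plus IFN-gamma mixture; protective hits raise ATP signal compared with cytokine alone wells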
Cytochrome P450 2C19 = Cytochrome P450 2C19 (Homo sapiens, UniProt P33261); test: Cytochrome panel assay with activity outcomes. Panel member name: p450-cyp2c19 Compounds with AC50 equal or less than 10 uM are considered active; format: functional; details: read-out: AC50
Cytochrome P450 2C19, sequence (P33261 whole entry): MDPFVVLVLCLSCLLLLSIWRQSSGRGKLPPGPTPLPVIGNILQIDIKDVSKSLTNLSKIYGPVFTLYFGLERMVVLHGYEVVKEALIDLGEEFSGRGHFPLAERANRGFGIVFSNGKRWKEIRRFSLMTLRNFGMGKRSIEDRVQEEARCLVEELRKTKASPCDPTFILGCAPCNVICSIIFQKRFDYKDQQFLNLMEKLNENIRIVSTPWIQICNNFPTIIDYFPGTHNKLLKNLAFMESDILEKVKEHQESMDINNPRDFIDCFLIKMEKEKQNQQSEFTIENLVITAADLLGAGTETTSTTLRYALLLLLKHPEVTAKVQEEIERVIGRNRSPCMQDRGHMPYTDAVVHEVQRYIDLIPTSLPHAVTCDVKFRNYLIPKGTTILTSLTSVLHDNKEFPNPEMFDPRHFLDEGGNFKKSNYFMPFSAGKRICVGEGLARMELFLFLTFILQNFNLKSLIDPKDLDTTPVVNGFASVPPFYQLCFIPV

Cytochrome P450 2C9 = Cytochrome P450 2C9 (Homo sapiens, UniProt P11712)
Cytochrome P450 2C9, sequence (P11712 whole entry): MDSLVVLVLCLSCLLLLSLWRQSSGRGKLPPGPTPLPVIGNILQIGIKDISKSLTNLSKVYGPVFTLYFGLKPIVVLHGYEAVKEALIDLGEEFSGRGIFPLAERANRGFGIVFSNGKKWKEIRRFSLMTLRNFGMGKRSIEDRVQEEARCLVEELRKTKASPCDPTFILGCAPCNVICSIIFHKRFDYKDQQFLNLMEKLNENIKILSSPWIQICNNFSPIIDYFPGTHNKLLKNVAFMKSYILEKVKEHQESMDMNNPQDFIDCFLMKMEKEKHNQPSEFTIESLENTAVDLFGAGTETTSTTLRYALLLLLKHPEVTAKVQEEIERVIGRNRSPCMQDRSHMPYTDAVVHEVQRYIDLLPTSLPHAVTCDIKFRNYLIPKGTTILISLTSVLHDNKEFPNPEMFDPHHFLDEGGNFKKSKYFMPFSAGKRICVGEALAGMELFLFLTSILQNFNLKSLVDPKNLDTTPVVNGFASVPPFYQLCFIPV

[6] = NIH-3T3 fibroblast cytotoxicity, dose response, cytotoxicity control, cell-based, fluorescence, Alamar Blue, secondary assay (AID 2327); format: functional;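 note: NIH-3T3 mouse fibroblasts cultured with fluconazole at 8 µg/mL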
[7] = fluconazole-exposed Candida albicans growth modulators – fluorescence, retest, confirmation (AID 2467); format: functional, cell-based
[8] = viability of uninfected HEp-2 cells – cell-based, HTS, cytotoxicity control for RSV inhibitor project, dose response (AID 2410); format: functional; details: human respiratory syncytial virus
[9] = Luminescence Cell-Based Dose Retest to Confirm Inhibitors of Cancer Stem Cells. [Related pubchem assays (depositor defined):AID2717, AID2721]; format: functional; details: Homo sapiens

Question: For `O=c1c2sc3ccccc3c2[nH]c(=S)n1CCN1CCOCC1`, which IC50 [1] is on record?
Answer: The IC50 was 91.3 µM (active).

Question: Which results are given for `Cc1cccc(Oc2nc(-c3ccncc3)nc3ccccc23)c1`?
Answer: EC50 [2]: 10.9 µM (active); EC50 (Streptokinase A): > 150 µM (not active); EC50 (Streptococcus): 12.5 µM (active)

Question: For `CCOc1ccc(/C=N/NC(=S)NC2CC3CC2C2C=CCC32)cc1` (stereo unspecified), which EC50 [2] is on record?
Answer: The EC50 was 14.4 µM (active).

Question: What about the EC50 (Streptokinase A) of the same compound?
Answer: Its EC50 is > 150 µM (not active).

Question: And the EC50 (Streptococcus)?
Answer: The EC50 was 19.8 µM (active).

Question: Which results are given for `COc1ccc(N2CCCC2)c(NC(=O)COc2ccccc2Cl)c1`?
Answer: EC50 [3]: 13.9 µM (active); EC50 [4]: > 120 µM (not active); EC50 [5]: 13.1 µM (active)

Question: With `COc1cccc(C(=O)Nc2cccc(OCC(=O)O)c2)c1` as the compound, how does the EC50 [3] read?
Answer: The EC50 was > 120 µM (not active).

Question: What about the EC50 [4] of the same compound?
Answer: The EC50 was > 120 µM (not active).

Question: What about the EC50 [5] of the same compound?
Answer: The EC50 was 25.9 µM (active).

Question: Which IC50 [1] does the source give for `O=C(Nc1cc(Br)c(O)c(Br)c1)c1cccc(NC(=O)c2ccco2)c1` here?
Answer: The IC50 was 95.2 µM (active).

Question: What does the source list for `Cc1n[nH]c(C)c1CCCOc1ccccc1`?
Answer: EC50 [2]: > 150 µM (not active); EC50 (Streptokinase A): > 150 µM (not active); EC50 (Streptococcus): > 150 µM (not active)

Question: Which IC50 [1] does the source give for `Cn1cnc2cc(NCc3ccccc3O)ccc21` here?
Answer: Its IC50 is 93.9 µM (active).

Question: For `C/C(=N\NC(=O)c1ccc(NS(=O)(=O)c2cccs2)cc1)c1ccccn1`, which AC50 (INS1) is on record?
Answer: Its AC50 is 3.08 µM (active).

Question: For `C/C(=N\NC(=S)NCc1ccccc1)c1cccc(Br)c1`, which EC50 [2] is on record?
Answer: The EC50 was 8.85 µM (active).

Question: And the EC50 (Streptokinase A)?
Answer: The EC50 was > 150 µM (not active).

Question: And the EC50 (Streptococcus)?
Answer: Its EC50 is > 150 µM (not active).

Question: Which results are given for `Cc1ccc(C2CC(c3cccs3)=NN2C(=O)c2ccc(Br)o2)cc1` (stereo unspecified)?
Answer: EC50 [2]: 3.12 µM (active); EC50 (Streptokinase A): > 150 µM (not active); EC50 (Streptococcus): 34.1 µM (active)

Question: What does the source list for `CCCCN1C(=O)/C(=C/c2ccc(N(C)C)cc2)C(=O)N(Cc2ccco2)C1=O`?
Answer: AC50 (Cytochrome P450 2C19): 31.6 µM (inconclusive); AC50 (Cytochrome P450 2C9): 35.5 µM (inconclusive)

Question: For `COc1ccc(CCNCCN2CCOCC2)cc1`, which IC50 [1] is on record?
Answer: Its IC50 is 77.1 µM (active).

Question: Which IC50 [1] does the source give for `CCOc1ccccc1CN1CCC(N2CCOCC2)CC1` here?
Answer: Its IC50 is 83 µM (active).

Question: Which EC50 [2] does the source give for `CCS(=O)(=O)N1Cc2ccccc2CC1C(=O)Nc1nnc(SCc2ccc(F)cc2)s1` (stereo unspecified) here?
Answer: Its EC50 is 8.48 µM (active).

Question: What about the EC50 (Streptokinase A) of the same compound?
Answer: The EC50 was > 150 µM (not active).

Question: What about the EC50 (Streptococcus) of the same compound?
Answer: The EC50 was 91.2 µM (active).

Question: Which AC50 (INS1) does the source give for `CN(C)CCCN(C(=O)COc1ccc(Cl)cc1)c1nc2cc3c(cc2s1)OCO3` here?
Answer: The AC50 was 14.2 µM (active).

Question: For `Nc1nc(-c2ccc(NC(=O)c3ccco3)cc2)cs1`, which EC50 [4] is on record?
Answer: The EC50 was 11.7 µM (inconclusive).

Question: And the EC50 [5]?
Answer: Its EC50 is 8.2 µM (inconclusive).

Question: For `CC(Cc1ccccc1)NC(=O)CSc1nc2nc3c(cc2c(=O)n1-c1ccccc1)COC(C)(C)C3` (stereo unspecified), which AC50 (Cytochrome P450 2C19) is on record?
Answer: The AC50 was 35.5 µM (inconclusive).

Question: What about the AC50 (Cytochrome P450 2C9) of the same compound?
Answer: The AC50 was 15.8 µM (inconclusive).

Question: Which AC50 (INS1) does the source give for `O=c1[nH]c(=O)n(Cc2ccco2)c2c1C(C(F)(F)F)(C(F)(F)F)NC(c1ccc(F)cc1)=N2` here?
Answer: The AC50 was 3.11 µM (active).

Question: What does the source list for `Cc1ccccc1-[n+]1c(-c2ccccc2)cc(-c2ccccc2)cc1-c1ccccc1.[O-][Cl+3]([O-])([O-])[O-]`?
Answer: EC50 [6]: 36.3 µM (active); EC50 [7]: 210 nM (active); AC50 (INS1): 2.26 µM (active)

Question: For `Cc1ccc(S(=O)(=O)[N-]C2=C([n+]3ccn(CCC(C)C)c3)C(=O)c3ccccc3C2=O)cc1`, which AC50 (INS1) is on record?
Answer: The AC50 was 5.8 µM (active).

Question: For `COc1cccc(Nc2nc(-c3cccs3)nc3ccccc23)c1`, which CC50 [8] is on record?
Answer: Its CC50 is 13.9 µM (active).

Question: What about the AC50 [9] of the same compound?
Answer: The AC50 was 3.42 µM (active).

Question: For `CCCCCSc1nnc(C)c(O)n1`, which AC50 (Cytochrome P450 2C19) is on record?
Answer: The AC50 was 39.8 µM (inconclusive).

Question: What about the AC50 (Cytochrome P450 2C9) of the same compound?
Answer: Its AC50 is 8.91 µM (inconclusive).
